Experiments:
[1] = tested on: control littermates (CL); experiment: REMS activity by EEG/EMG sleep recording in control littermates (CL) of CRH-COE^CNS mice; assay type: in vivo; settings: CL mice of CRH-COE^CNS line; 50 mg/kg/d via drinking water
Description: (§1) Experiments were conducted with two different mouse lines of excessive central CRH secretion and their respective control littermates (CL). Mice of the CRH-COE^CNS line are characterised by CRH-overexpression within the whole CNS, whereas mice of the Cor26 CRH line display a CRH-overexpression specific to CRH-ergic neurons of the CNS. Three different CRHR1 antagonists were tested. […] In all cases, animals were left to recover from EEG/EMG-electrode implantation for two weeks, after which two days of baseline recording were initiated. Treatment with CRH-R1 antagonist or respective vehicle control commenced thereafter for five consecutive days. Antagonists were applied through the drinking water at a daily dose of 50 mg/kg body weight. EEG and EMG recordings were manually scored as wake, non-REMS (NREMS), and REMS in four second epochs by an experienced evaluator.

[2] = tested on: CRH-COE^CNS mice; experiment: REMS activity by EEG/EMG sleep recording in CRH-COE^CNS mice; settings: for REMS activity: 50 mg/kg/d via drinking water, treatment days vs baseline, significant from treatment day two (DMP-696 P<0.05; SSR125543 P≤0.035)
[3] = tested on: Cor26 CRH mice; experiment: REMS activity by EEG/EMG sleep recording in Cor26 CRH mice; settings: for REMS levels / REMS activity: CRH-overexpressing Cor26 CRH mice, 50 mg/kg/d via drinking water
[4] = tested on: control littermates (CL); experiment: REMS activity by EEG/EMG sleep recording in control littermates (CL) of Cor26 CRH mice; assay type: in vivo; settings: CL animals of Cor26 CRH line; 50 mg/kg/d via drinking water
Description: as §1

| Structure (SMILES) | REMS activity in control littermates [1] | treatment day of strongest suppression of REMS activity ([2]; CRH-COE^CNS animals, 50 mg/kg/d) | REMS suppression relative to baseline REMS-levels of CL ([2]; CRH-COE^CNS mice, 50 mg/kg/d) | REMS activity ([2]; CRH-COE^CNS mice, 50 mg/kg/day) | REMS activity ([2]; CRH-COE^CNS mice, listed as DMP696, 50 mg/kg/day) | REMS levels / REMS activity ([3]; 50 mg/kg/day) | REMS levels / REMS activity ([3]; listed as CP-316311, 50 mg/kg/day) | REMS levels, area under the curve (AUC) within the light period ([3]; Cor26 CRH mice, baseline vs treatment day three, P=0.006) | REMS levels in control littermates [4] |
| --- | --- | --- | --- | --- | --- | --- | --- | --- | --- |
| COCC(COC)Nc1nc(C)nc2c(-c3ccc(Cl)cc3Cl)c(C)nn12 [DMP-696] | only a mild suppression | treatment day three | never exceeded baseline REMS-levels of CL | significant decrease | suppressed | – | – | – | – |
| CCC(CC)Oc1cc(C)nc(Oc2c(C)cc(C)cc2C)c1C [CP-316,311] | – | – | – | – | – | weak | suppressed | significant decrease | no significant effect |
